Test results published in ChEMBL document CHEMBL1134167, “Conformational study of a highly specific CXCR4 inhibitor, T140, disclosing the close proximity of its intrinsic pharmacophores associated with strong anti-HIV activity” (Bioorg Med Chem Lett, 2001).
Where a SMILES comes first, the peptide text is derived from it. Bridges are numbered along the chain shown (N, C = ends). [ ]: non-standard residue; d: D form. Gly(2-naphthyl) = N[C@H](C(=O)O)c1ccc2ccccc2c1; Cit = NC(=O)NCCC[C@H](N)C(=O)O

Test system: Human immunodeficiency virus 1
Experiment: Effective concentration for HIV-1 inhibition
Type: functional, organism-based

**Q.** For `NCCCC[C@@H]1NC(=O)[C@H](CCCN=C(N)N)NC(=O)[C@H](Cc2ccc(O)cc2)NC(=O)[C@@H](NC(=O)[C@@H](NC(=O)[C@H](CCCN=C(N)N)NC(=O)[C@@H](N)CCCN=C(N)N)c2ccc3ccccc3c2)CSSC[C@@H](C(=O)N[C@@H](CCCN=C(N)N)C(=O)O)NC(=O)[C@H](CCCNC(N)=O)NC(=O)[C@H](CCCN=C(N)N)NC(=O)[C@H](Cc2ccc(O)cc2)NC(=O)[C@@H]2CCCN2C(=O)[C@@H](CCCCN)NC1=O` (H-RR[Gly(2-naphthyl)]CYRK[dK]PYR[Cit]CR-OH; disulfide 4-13), which EC50 is on record?
**A.** 3.5 nM
